Assay results from patent US10189854B2, “Substituted pyrimidine compounds” (Grünenthal GmbH, priority 2014, dated 2019).

The compounds below were run against human PDE4B1 (Homo sapiens (Human), UniProt Q07343) (assay: cAMP HTRF assay to determine the activity of hPDE4B1). Conditions: IC50 inhibition of PDE4B; human recombinant PDE4B1, cAMP HTRF assay.
Assay type: biochemical
Description: Biological Testing cAMP HTRF® Assay to Determine the Activity of hPDE4B1
The inhibiting effect of the compounds on the enzyme activity of human PDE4B1 was measured by the quantification of 5′-adenosine monophosphate (5′-AMP), which is formed from 3′,5′-cyclic adenosine monophosphate (cAMP). Human recombinant enzyme, expressed in Sf9 cells, and the HTRF (homogeneous time-resolved fluorescence) detection method were used in the assay.
The test compound or water (control) was mixed with the human recombinant PDE4B1 enzyme (4.8 U) in a buffer consisting of 44.4 mM tris-HCl, 5.28 mM MgCl2, 2.64 mM DTT and 0.044% Tween 20 (pH 7.8). After adding the cAMP enzyme substrate (final concentration 40 nM), the mixture was incubated for 30 minutes at room temperature. Then a fluorescence acceptor (Dye2 marked with cAMP), a fluorescence donor (anti-cAMP antibody marked with a europium cryptate) and the non-specific phosphodiesterase inhibitor IBMX (3-isobutyl-1-methylxanthine; final concentration 1 mM) were added. After 60 min the fluorescence transfer, which correlates with the amount of remaining cAMP, was measured with a microplate reader (Rubystar, BMG) at λex=337 nm, λem=620 nm and λem=665 nm. The enzyme activity was calculated from the quotient formed from the measured signal at 665 nm and that at 620 nm. The result was expressed as the percentage inhibition of enzyme activity of the control (without PDE4 inhibitor). The enzyme was omitted for measurement of the basal control.
[N. Saldou et al., Comparison of recombinant human PDE4 isoforms: interaction with substrate and inhibitors, Cell. Signal. Vol. 10, No. 6, 427-440, 1998]. Several compounds according to the invention are tested in the above-described assay.

Sequence of human PDE4B1 (Q07343 whole entry): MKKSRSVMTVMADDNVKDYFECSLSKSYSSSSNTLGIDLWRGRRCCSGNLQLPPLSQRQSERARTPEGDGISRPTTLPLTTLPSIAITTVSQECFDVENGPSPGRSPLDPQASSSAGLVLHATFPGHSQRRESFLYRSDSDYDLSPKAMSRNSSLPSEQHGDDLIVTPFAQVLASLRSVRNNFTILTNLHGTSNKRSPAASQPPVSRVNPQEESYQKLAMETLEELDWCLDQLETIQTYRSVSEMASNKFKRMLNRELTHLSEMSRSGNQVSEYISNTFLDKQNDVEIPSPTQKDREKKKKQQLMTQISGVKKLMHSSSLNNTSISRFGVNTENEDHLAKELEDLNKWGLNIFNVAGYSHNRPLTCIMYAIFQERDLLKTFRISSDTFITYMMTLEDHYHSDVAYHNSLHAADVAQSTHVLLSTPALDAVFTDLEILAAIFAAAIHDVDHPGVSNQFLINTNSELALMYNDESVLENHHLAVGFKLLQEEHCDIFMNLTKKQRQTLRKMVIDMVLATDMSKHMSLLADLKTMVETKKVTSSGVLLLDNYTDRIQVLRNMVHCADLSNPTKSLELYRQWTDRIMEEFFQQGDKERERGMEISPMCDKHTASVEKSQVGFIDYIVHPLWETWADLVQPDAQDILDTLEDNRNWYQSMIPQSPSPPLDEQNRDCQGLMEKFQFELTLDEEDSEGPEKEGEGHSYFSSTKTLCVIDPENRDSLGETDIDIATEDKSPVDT

Row | Compound | IC50 [µM]
1 | O=C(c1ccc2c(c1)N(c1ncc(-c3cccc(F)c3F)cn1)CC21CC1)N1CCOCC1 [Compound 15, [1-[5-(2,3-Difluoro-phenyl)-pyrimidin-2-yl]-spiro[1,2-dihydro-indole-3,1′-cyclopropane]-6-yl]-morpholin-4-yl-methanone] | < 0.1
2 | COc1ccc(F)c(-c2cnc(N3CC4(CC4)c4ccc(C(=O)N5CCOCC5)cc43)nc2)c1 [Compound 16, [1-[5-(2-Fluoro-5-methoxy-phenyl)-pyrimidin-2-yl]-spiro[1,2-dihydro-indole-3,1′-cyclopropane]-6-yl]-morpholin-4-yl-methanone] | < 0.1
3 | COc1ccc(-c2cnc(N3CC4(CC4)c4ccc(C(=O)N5CCOCC5)cc43)nc2)c(F)c1 [Compound 17, [1-[5-(2-Fluoro-4-methoxy-phenyl)-pyrimidin-2-yl]-spiro[1,2-dihydro-indole-3,1′-cyclopropane]-6-yl]-morpholin-4-yl-methanone] | < 0.1
4 | N#Cc1ccccc1-c1cnc(N2CC3(CC3)c3ccc(C(=O)N4CCOCC4)cc32)nc1 [Compound 18, 2-[2-[6-(Morpholine-4-carbonyl)-spiro[1,2-dihydro-indole-3,1′-cyclopropane]-1-yl]-pyrimidin-5-yl]-benzonitrile] | 0.1 to 1
5 | COc1cccc(F)c1-c1cnc(N2CC3(CC3)c3ccc(C(=O)N4CCOCC4)cc32)nc1 [Compound 19, [1-[5-(2-Fluoro-6-methoxy-phenyl)-pyrimidin-2-yl]-spiro[1,2-dihydro-indole-3,1′-cyclopropane]-6-yl]-morpholin-4-yl-methanone] | 0.1 to 1
6 | N#Cc1cccc(F)c1-c1cnc(N2CC3(CC3)c3ccc(C(=O)N4CCOCC4)cc32)nc1 [Compound 20, 3-Fluoro-2-[2-[6-(morpholine-4-carbonyl)-spiro[1,2-dihydro-indole-3,1′-cyclopropane]-1-yl]-pyrimidin-5-yl]-benzonitrile] | 0.1 to 1
7 | CN(C)C(=O)c1ccccc1-c1cnc(N2CC3(CC3)c3ccc(C(=O)N4CCOCC4)cc32)nc1 [Compound 21, N,N-Dimethyl-2-[2-[6-(morpholine-4-carbonyl)-spiro[1,2-dihydro-indole-3,1′-cyclopropane]-1-yl]-pyrimidin-5-yl]-benzamide] | 0.1 to 1
8 | N#Cc1ccc(F)c(-c2cnc(N3CC4(CC4)c4ccc(C(=O)N5CCOCC5)cc43)nc2)c1 [Compound 22, 4-Fluoro-3-[2-[6-(morpholine-4-carbonyl)-spiro[1,2-dihydro-indole-3,1′-cyclopropane]-1-yl]-pyrimidin-5-yl]-benzonitrile] | < 0.1
9 | O=C(c1ccc2c(c1)N(c1ncc(-c3cc(C(F)(F)F)ccc3F)cn1)CC21CC1)N1CCOCC1 [Compound 23, [1-[5-[2-Fluoro-5-(trifluoromethyl)-phenyl]-pyrimidin-2-yl]-spiro[1,2-dihydro-indole-3,1′-cyclopropane]-6-yl]-morpholin-4-yl-methanone] | < 0.1
10 | O=C(c1ccc2c(c1)N(c1ncc(-c3c(F)cccc3C(F)(F)F)cn1)CC21CC1)N1CCOCC1 [Compound 24, [1-[5-[2-Fluoro-6-(trifluoromethyl)-phenyl]-pyrimidin-2-yl]-spiro[1,2-dihydro-indole-3,1′-cyclopropane]-6-yl]-morpholin-4-yl-methanone] | 1 to 10
11 | NC(=O)c1ccccc1-c1cnc(N2CC3(CC3)c3ccc(C(=O)N4CCOCC4)cc32)nc1 [Compound 25, 2-[2-[6-(Morpholine-4-carbonyl)-spiro[1,2-dihydro-indole-3,1′-cyclopropane]-1-yl]-pyrimidin-5-yl]-benzamide] | 0.1 to 1
12 | NC(=O)c1ccc(-c2cnc(N3CC4(CC4)c4ccc(C(=O)N5CCOCC5)cc43)nc2)c(F)c1 [Compound 26, 3-Fluoro-4-[2-[6-(morpholine-4-carbonyl]-spiro[1,2-dihydro-indole-3,1′-cyclopropane]-1-yl]-pyrimidin-5-yl]-benzamide] | < 0.1
